# Where “and” joins values, the source holds several entries; their conditions need not be identical. Equal entries are not always repeated. Where no end group is shown, it is not given here.
# Columns and labels:
# hind paw edema = assay: Carrageenan mouse paw edema model of inflammation; type: in vivo, ICR derived mice; conditions: PO once daily × 5
# Protocol: Test substance LPF-35 at 5 mg/kg and reference agent Aspirin at 100 mg/kg were administered orally once daily for 5 consecutive days to groups of 8 ICR (4 male and 4 female) derived mice weighing 22±2 gms. One hour after 5th dose, right hind paw was injected with carrageenan (0.05 ml of 1% suspension intraplantar). The hind paw edema was measured 4 hours later. Convention: reduction of hind paw edema by 30 percent or more indicates significant acute anti-inflammatory activity. Each animal was fasted overnight before Carrageenan challenge.
# heart allograft = assay: Heart allograft survival model in rats; type: in vivo, rats (Wistar Furh recipients, Baffalo donors); conditions: FK506 alone, 0.8 mg/kg oral gavage once daily days 0 to +14; n=10
# Protocol: The activity of LPF-35 in combination with FK506 was compared with FK506 alone in a heart allograft survival model in rats. Wistar Furh (WF; RT1) recipients of heart allograft from Baffalo donors (BUF; RT1b) were administered oral LPF-35 (5 mg/kg) plus FK506 (0.8 mg/kg), FK506 alone or placebo. The results are presented as a mean±standard deviation (MST±SD). Significance between groups was calculated using Student T-test with p<0.05 considered as significant. In group # 1 control WF recipients of BUF heart allografts (n=5) were untreated and heart allografts were rejected in an acute fashion within 6.4±0.5 days. In group # 2 WF recipients of BUF heart allografts (n=10) were treated daily once (days 0 to +14) with 0.8 mg/kg FK506 delivered by oral gavage. This protocol was effective in prolonging the survival of heart allografts to a MST of 22.3±6.7 days (p=0.0002). […] In group # 3 WF recipients of BUF heart allografts (n=6) were treated daily once (days 0 to +14) with 0.8 mg/kg FK506 delivered by oral gavage in combination with LPF-35 daily for 14 days. This protocol was effective in prolonging the survival of heart allografts to a MST of 49.5±28 days (p=0.0077). […] An effect of reducing organ transplant rejection is indicative of beneficial effects in GVHD.
# [1] = tested on: clinical bacterial isolates; assay: Peptide MICs by NCCLS broth microdilution; type: cell-based; conditions: geometric mean MIC; 742 clinical bacterial isolates representing 35 species
# Protocol: The novel peptides described in this application have shown substantial anti-microbial activity. Peptide MICs were determined by the broth microdilution method recommended by the NCCLS (M7-A5). In each medium, the concentrations of peptide were serial two-fold dilutions ranging from 8192 to 8 μg/mL. Mueller-Hinton broth and Peptone broth were used throughout, using the following media: 1) 5rCAMHB, 2) CAMHB supplemented with 3% lysed horse blood, 3) Haemophilus test medium, 4) peptone broth at pH 7, 5) peptone broth at pH 7.5, 6) peptone broth supplemented with 25 μg/mL calcium and 12.5 μg/mL magnesium, 7) peptone broth supplemented with 1.5 g/L soluble starch. On each day of testing, colony counts were performed on the broth from the growth control well immediately after inoculation from two randomly selected isolates to assure appropriate inoculum density. A total of 742 clinical bacterial isolates representing 35 species were tested.
# Ascaris suum antigen = assay: Sheep model of allergic asthma; type: in vivo; conditions: lung resistance and carbachol response, FIG. 5, FIG. 6
# Protocol: Peptides LPF-32 and LPF-35 were both tested in an established sheep model of allergic asthma. […] Allergic sheep previously characterized as dual responders (displaying early and late phases of bronchoconstriction), were administered peptide followed by inhalation challenge with Ascaris suum antigen.
# Baseline dose response curves to aerosolized carbachol were obtained in all sheep 1-3 days before the start of dosing. Sheep were dosed with peptide or placebo by nebulization or oral gavage in the inhaled and oral experiments respectively. The sensitized sheep were then challenged with Ascaris suum antigen to produce early and late airway responses, as measured by mean lung resistance (pulmonary flow resistance, RL). Mean lung resistance was measured using tracheal and pleural pressure catheters connected to a differential pressure transducer. […]
# To assess airway responsiveness, cumulative dose response curves to carbachol were obtained, as measured by specific lung resistance, or SRL (SRL=RL * thoracic gas volume). […] Airway hypersensitivity (AH) was determined by calculating the cumulative carbachol dose that increased SRL by 400% over the post-saline value by interpolation from the dose response curve. […]
# MIP3-α = MIP3-α expression in hepatocytes, ELISA; type: cell-based, human; conditions: 0.04 and 0.2 mg/mL, supernatant at 2 h and 4 h; FIG. 9
# Description: Still further, it is envisioned that lactoferrin related peptides stimulate production of MIP-3alpha from hepatocytes. Lactoferrin is known to contribute to the defense systems of the body through its anti-microbial properties. […] The innate immune system is the ‘first line of defense’ of the body against hostile environments and comprise of a variety of effector and cellular mechanisms. This innate immune response is initially likely mediated by the ‘detection system’ of receptors known to be present on the surface of the gut epithelial cells, such as pattern recognition receptors, IL-1 receptor and general ‘scavenger’ receptors. These receptors recognize and respond to specific structural features of the presented molecules. As a result, various intracellular signaling pathways may be initiated (e.g., NFκB, Wnt, etc.) that result in the overall orchestration of the cellular response of the body to the prevailing biological situation (e.g., infection). RhLF and peptides derived from rhLF elicit a similar response of human hepatocytes in vitro in terms of producing an important chemokine—namely MIP-3-alpha. It is surmised that some general structural features that are responsible for the biological response to rhLF are retained in peptides that are structurally related to the parent molecule (rhLF).
# MIP3-α has been associated with the stimulation of innate immune responses. […]
Compound,MIC GeoMean [1],further results
CC(=O)Oc1ccccc1C(=O)O [Aspirin],–,"Paw Volume LP (hind paw edema; LP, average n=8): 12.38 ×0.01 ml; Paw Volume Diff. (hind paw edema; RP minus LP): 5.00 ×0.01 ml; % Inhibition (hind paw edema; hind paw edema vs vehicle): 32%; Paw Volume RP (hind paw edema; right hind paw injected with carrageenan, 4 hours later, average n=8): 17.38 ×0.01 ml"
C=CC[C@@H]1/C=C(\C)C[C@H](C)C[C@H](OC)[C@H]2O[C@@](O)(C(=O)C(=O)N3CCCC[C@H]3C(=O)O[C@H](/C(C)=C/[C@@H]3CC[C@@H](O)[C@H](OC)C3)[C@H](C)[C@@H](O)CC1=O)[C@H](C)C[C@@H]2OC [FK506],–,"survival of heart allografts, MST ± SD (heart allograft): 22.3±6.7 days"
RRRRRRSVQWAAVSQPIATEAFQWQRNMRKRRR [LPF-25],66 µg/mL,–
RRRRRRSVQWAAVSQPIATKAFQWQRNMRKRRR [LPF-36],24 µg/mL,–
RRRRRRSVQWQAVSQPEATKQFQWQRNMRKRRR [LPF-31],41 µg/mL,–
RRRRRRSVQWQAVSQPGATKQFQWQRNMRKRRR [LPF-32],25 µg/mL,late phase inflammation and airway hyperresponsiveness (Ascaris suum antigen): substantially inhibit
RRRRRRSVQWQAVSQPIATEQFQWQRNMRKRRR [LPF-24],43 µg/mL and 51 µg/mL,–
RRRRRRSVQWQAVSQPIATIQFQWQRNMRKRRR [LPF-35],15 µg/mL,expression of MIP3-α in Hepatocytes (MIP3-α): stimulates
RRRRRRSVQWQAVSQPIATKQFQWQRNMRKRRR [LPF-33],28 µg/mL,–
RRRRRRSVQWQAVSQPQATGQFQWQRNMRKRRR [LPF-34],32 µg/mL,–
